Measured values as given in patent US20260347338A1, “PYRIMIDINE/PYRIDINE DERIVATIVES OR SALTS THEREOF AND PHARMACEUTICAL COMPOSITIONS COMPRISING THE SAME” (YUHAN CORPORATION, priority 2023, published 2026).
Structures can show the parent of a compound that is named as a salt.

Target: T1, human recombinant HPK1 (Homo sapiens, UniProt Q92918)
T1 construct: purchased BPS Bioscience
Experiment: Inhibitory activity against human recombinant HPK1 (TR-FRET)
Format: biochemical
Details: ULight-p70S6K peptide, ATP at Km, room temperature, 1 hour, 0.32 to 1000 nM compound
Summary of the method: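 Recombinant human HPK1 with ULight-p70S6K peptide and ATP at Km, 1 h at room temperature in HEPES pH 7.4 buffer with Mg2+, Mn2+, EGTA, DTT; compounds 0.32–1000 nM final. EDTA stop, Eu-anti-phosphopeptide TR-FRET read (665 nm); IC50 from % inhibition versus DMSO, binned A–D at 10, 50, 100 nM.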

T1 sequence (Q92918 whole entry): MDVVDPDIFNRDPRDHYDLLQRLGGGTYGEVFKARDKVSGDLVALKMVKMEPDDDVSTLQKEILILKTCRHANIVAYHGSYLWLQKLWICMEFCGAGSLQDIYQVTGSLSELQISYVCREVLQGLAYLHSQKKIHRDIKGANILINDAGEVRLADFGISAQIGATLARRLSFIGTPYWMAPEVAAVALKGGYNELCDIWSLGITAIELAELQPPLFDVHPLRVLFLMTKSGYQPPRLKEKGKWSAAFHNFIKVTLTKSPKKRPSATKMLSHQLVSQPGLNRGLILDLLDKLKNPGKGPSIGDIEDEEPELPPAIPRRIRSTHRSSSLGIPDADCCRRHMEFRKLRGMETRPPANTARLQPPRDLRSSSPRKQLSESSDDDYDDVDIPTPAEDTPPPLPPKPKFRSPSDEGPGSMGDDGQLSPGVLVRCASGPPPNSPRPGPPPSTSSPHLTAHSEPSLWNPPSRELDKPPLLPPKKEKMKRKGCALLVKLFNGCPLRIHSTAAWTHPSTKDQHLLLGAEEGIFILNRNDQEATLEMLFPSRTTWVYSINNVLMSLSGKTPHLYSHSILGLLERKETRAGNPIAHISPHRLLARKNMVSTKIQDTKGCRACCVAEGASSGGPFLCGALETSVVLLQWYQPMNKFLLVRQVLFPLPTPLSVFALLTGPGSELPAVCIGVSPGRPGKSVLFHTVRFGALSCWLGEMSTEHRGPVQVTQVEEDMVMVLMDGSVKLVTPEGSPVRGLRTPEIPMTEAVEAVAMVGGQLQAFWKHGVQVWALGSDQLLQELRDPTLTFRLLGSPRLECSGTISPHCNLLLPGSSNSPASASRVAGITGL

Row | SMILES | IC50 [nM]
1 | COc1cc(F)cc(F)c1-c1nc(Nc2cc(N3CCC[C@H](O)C3)c(-c3cnn(CC(F)F)c3)cn2)ccc1[N+](=O)[O-] [Example 223, (3S)-1-(2-((6-(2,4-difluoro-6-methoxyphenyl)-5-nitropyridin-2-yl)amino)-5-(1-(2,2-difluoroethyl)-1H-pyrazol-4-yl)pyridin-4-yl)piperidin-3-ol] | ≤ 10
2 | COc1cc(F)cc(F)c1-c1nc(Nc2cc(N3CCC[C@H](O)C3)c(-c3cnn(C4CCOCC4)c3)cn2)ccc1[N+](=O)[O-] [Example 224, (3S)-1-(2-((6-(2,4-difluoro-6-methoxyphenyl)-5-nitropyridin-2-yl)amino)-5-(1-(tetrahydro-2H-pyran-4-yl)-1H-pyrazol-4-yl)pyridin-4-yl)piperidin-3-ol] | ≤ 10
3 | COc1cc(F)cc(F)c1-c1nc(Nc2cc(N3CCC[C@H](O)C3)c(C#CC3CCOCC3)cn2)ccc1[N+](=O)[O-] [Example 225, (3S)-1-(2-((6-(2,4-difluoro-6-methoxyphenyl)-5-nitropyridin-2-yl)amino)-5-((tetrahydro-2H-pyran-4-yl)ethynyl)pyridin-4-yl)piperidin-3-ol] | ≤ 10
4 | COc1cc(F)cc(F)c1-c1nc(Nc2cc(N3CCC[C@H](O)C3)c(-c3cnn(CC(F)F)c3)cn2)ccc1N [Example 226, (3S)-1-(2-((5-amino-6-(2,4-difluoro-6-methoxyphenyl)pyridin-2-yl)amino)-5-(1-(2,2-difluoroethyl)-1H-pyrazol-4-yl)pyridin-4-yl)piperidin-3-ol] | ≤ 10
5 | COc1cc(F)cc(F)c1-c1nc(Nc2cc(N3CCC[C@H](O)C3)c(-c3cnn(C4CCOCC4)c3)cn2)ccc1N [Example 227, (3S)-1-(2-((5-amino-6-(2,4-difluoro-6-methoxyphenyl)pyridin-2-yl)amino)-5-(1-(tetrahydro-2H-pyran-4-yl)-1H-pyrazol-4-yl)pyridin-4-yl)piperidin-3-ol] | ≤ 10
6 | COc1cc(F)cc(F)c1-c1nc(Nc2cc(N3CCC[C@H](O)C3)c(CCC3CCOCC3)cn2)ccc1N [Example 228, (3S)-1-(2-((5-amino-6-(2,4-difluoro-6-methoxyphenyl)pyridin-2-yl)amino)-5-(2-(tetrahydro-2H-pyran-4-yl)ethyl)pyridin-4-yl)piperidin-3-ol] | 10 to 50
7 | COc1cccc(F)c1-c1nccc(Nc2cc(N3CCC[C@H](N)C3)c(-c3cnn(CC(C)(C)OC)c3)cn2)n1 [Example 229, (S)-N-(4-(3-aminopiperidin-1-yl)-5-(1-(2-methoxy-2-methylpropyl)-1H-pyrazol-4-yl)pyridin-2-yl)-2-(2-fluoro-6-methoxyphenyl)pyrimidin-4-amine] | ≤ 10
8 | COCCOc1ccc(-c2cnc(Nc3ccnc(-c4c(F)cccc4OC)n3)cc2N2CCC[C@H](N)C2)cn1 [Example 230, (S)-4-(3-aminopiperidin-1-yl)-N-(2-(2-fluoro-6-methoxyphenyl)pyrimidin-4-yl)-6′-(2-methoxyethoxy)-[3,3′-bipyridin]-6-amine] | ≤ 10
9 | COc1cc(C(=O)N2CC(F)(F)C2)cc(F)c1-c1nccc(Nc2cc(N3CCC[C@H](O)C3)c(-c3cnn(C(F)F)c3)cn2)n1 [Example 231, (S)-(3,3-difluoroazetidin-1-yl)(4-(4-((5-(1-(difluoromethyl)-1H-pyrazol-4-yl)-4-(3-hydroxypiperidin-1-yl)pyridin-2-yl)amino)pyrimidin-2-yl)-3-fluoro-5-methoxyphenyl)methanone] | ≤ 10
10 | COc1cc(C(=O)N2CC[C@H](F)C2)cc(F)c1-c1nccc(Nc2cc(N3CCC[C@H](O)C3)c(-c3cnn(C(F)F)c3)cn2)n1 [Example 232, (4-(4-((5-(1-(difluoromethyl)-1H-pyrazol-4-yl)-4-((S)-3-hydroxypiperidin-1-yl)pyridin-2-yl)amino)pyrimidin-2-yl)-3-fluoro-5-methoxyphenyl)((S)-3-fluoropyrrolidin-1-yl)methanone] | ≤ 10
11 | COc1cc(C(=O)N2CC[C@@H](F)C2)cc(F)c1-c1nccc(Nc2cc(N3CCC[C@H](O)C3)c(-c3cnn(C(F)F)c3)cn2)n1 [Example 233, (4-(4-((5-(1-(difluoromethyl)-1H-pyrazol-4-yl)-4-((S)-3-hydroxypiperidin-1-yl)pyridin-2-yl)amino)pyrimidin-2-yl)-3-fluoro-5-methoxyphenyl)((R)-3-fluoropyrrolidin-1-yl)methanone] | ≤ 10
12 | COc1cc(C(=O)N2CCC(F)(F)C2)cc(F)c1-c1nccc(Nc2cc(N3CCC[C@H](O)C3)c(-c3cnn(C(F)F)c3)cn2)n1 [Example 234, (S)-(4-(4-((5-(1-(difluoromethyl)-1H-pyrazol-4-yl)-4-(3-hydroxypiperidin-1-yl)pyridin-2-yl)amino)pyrimidin-2-yl)-3-fluoro-5-methoxyphenyl)(3,3-difluoropyrrolidin-1-yl)methanone] | ≤ 10
13 | COc1cccc(F)c1-c1nccc(Nc2cc(N3CCC[C@H](N)C3)c(-c3cnn(CC(C)(C)O)c3)cn2)n1 [Example 235, (S)-1-(4-(4-(3-aminopiperidin-1-yl)-6-((2-(2-fluoro-6-methoxyphenyl)pyrimidin-4-yl)amino)pyridin-3-yl)-1H-pyrazol-1-yl)-2-methylpropan-2-ol hydrochloride] | ≤ 10
14 | COc1cccc(F)c1-c1nccc(Nc2cc(N3CCC[C@H](N)C3)c(-c3cnn(CCCN(C)C)c3)cn2)n1 [Example 236, (S)-N-(4-(3-aminopiperidin-1-yl)-5-(1-(3-(dimethylamino)propyl)-1H-pyrazol-4-yl)pyridin-2-yl)-2-(2-fluoro-6-methoxyphenyl)pyrimidin-4-amine hydrochloride] | ≤ 10
15 | COc1cccc(F)c1-c1nccc(Nc2cc(N3CCC[C@H](N)C3)c(-c3cnn(CC4CNC4)c3)cn2)n1 [Example 237, (S)-N-(4-(3-aminopiperidin-1-yl)-5-(1-(azetidin-3-ylmethyl)-1H-pyrazol-4-yl)pyridin-2-yl)-2-(2-fluoro-6-methoxyphenyl)pyrimidin-4-amine hydrochloride] | ≤ 10
16 | COc1cccc(F)c1-c1nccc(Nc2cc(N3CCC[C@H](N)C3)c(-c3cnn([C@@H]4CCNC4)c3)cn2)n1 [Example 238, N-(4-((S)-3-aminopiperidin-1-yl)-5-(1-((R)-pyrrolidin-3-yl)-1H-pyrazol-4-yl)pyridin-2-yl)-2-(2-fluoro-6-methoxyphenyl)pyrimidin-4-amine hydrochloride] | ≤ 10
17 | COc1cccc(F)c1-c1nccc(Nc2cc(N3CCC[C@H](N)C3)c(-c3cnn([C@H]4CCNC4)c3)cn2)n1 [Example 239, N-(4-((S)-3-aminopiperidin-1-yl)-5-(1-((S)-pyrrolidin-3-yl)-1H-pyrazol-4-yl)pyridin-2-yl)-2-(2-fluoro-6-methoxyphenyl)pyrimidin-4-amine hydrochloride] | ≤ 10
18 | COc1cccc(F)c1-c1nccc(N(CCN(C)C)c2cc(N3CCC[C@H](N)C3)c(-c3ccc(N)nc3)cn2)n1 [Example 240, (S)-4-(3-aminopiperidin-1-yl)-N^6-(2-(dimethylamino)ethyl)-N^6-(2-(2-fluoro-6-methoxyphenyl)pyrimidin-4-yl)-[3,3′-bipyridin]-6,6′-diamine hydrochloride] | ≤ 10
19 | COc1cccc(F)c1-c1nccc(Nc2cc(N3CCC[C@H](N)C3)c(-c3ccc(N4CCNCC4)nc3)cn2)n1 [Example 241, (S)-4-(3-aminopiperidin-1-yl)-N-(2-(2-fluoro-6-methoxyphenyl)pyrimidin-4-yl)-6′-(piperazin-1-yl)-[3,3′-bipyridin]-6-amine hydrochloride] | ≤ 10
20 | N[C@H]1CCCN(c2cc(Nc3ccnc(-c4c(F)cccc4CO)n3)ncc2-c2cnn(C(F)F)c2)C1 [Example 242, (S)-(2-(4-((4-(3-aminopiperidin-1-yl)-5-(1-(difluoromethyl)-1H-pyrazol-4-yl)pyridin-2-yl)amino)pyrimidin-2-yl)-3-fluorophenyl)methanol hydrochloride] | ≤ 10
21 | N[C@H]1CCCN(c2cc(Nc3ccnc(-c4c(F)cccc4CO)n3)ncc2C#Cc2cnn(C(F)F)c2)C1 [Example 243, (S)-(2-(4-((4-(3-aminopiperidin-1-yl)-5-((1-(difluoromethyl)-1H-pyrazol-4-yl)ethynyl)pyridin-2-yl)amino)pyrimidin-2-yl)-3-fluorophenyl)methanol hydrochloride] | ≤ 10
22 | COCC(C)(C)n1cc(-c2cnc(Nc3ccnc(-c4c(F)cccc4OC)n3)cc2N2CCC[C@H](N)C2)cn1 [Example 244, (S)-N-(4-(3-aminopiperidin-1-yl)-5-(1-(1-methoxy-2-methylpropan-2-yl)-1H-pyrazol-4-yl)pyridin-2-yl)-2-(2-fluoro-6-methoxyphenyl)pyrimidin-4-amine hydrochloride] | ≤ 10
23 | COc1cccc(F)c1-c1nccc(Nc2cc(N3CCC[C@H](N)C3)c(-c3cnn(CC4CC(F)(F)C4)c3)cn2)n1 [Example 245, (S)-N-(4-(3-aminopiperidin-1-yl)-5-(1-((3,3-difluorocyclobutyl)methyl)-1H-pyrazol-4-yl)pyridin-2-yl)-2-(2-fluoro-6-methoxyphenyl)pyrimidin-4-amine hydrochloride] | ≤ 10
24 | COc1cccc(F)c1-c1nccc(Nc2cc(N3CCC[C@H](N)C3)c(-c3cnn(CCN(C)C)c3)cn2)n1 [Example 246, (S)-N-(4-(3-aminopiperidin-1-yl)-5-(1-(2-(dimethylamino)ethyl)-1H-pyrazol-4-yl)pyridin-2-yl)-2-(2-fluoro-6-methoxyphenyl)pyrimidin-4-amine hydrochloride] | ≤ 10
25 | COc1cccc(F)c1-c1nccc(Nc2cc(N3CCC[C@H](N)C3)c(-c3cnn(CF)c3)cn2)n1 [Example 247, (S)-N-(4-(3-aminopiperidin-1-yl)-5-(1-(fluoromethyl)-1H-pyrazol-4-yl)pyridin-2-yl)-2-(2-fluoro-6-methoxyphenyl)pyrimidin-4-amine hydrochloride] | ≤ 10
